Test results taken from US20180292376A1, “DIFFUSION CELL TESTING METHODS CONTAINING BIPHASIC RECEPTOR FLUIDS” (BUFFERAD Illinois Inc. d/b/a Zyleris PharmaTech, Inc., priority 2017, published 2018).

Columns and labels:
[1] = In vitro release testing (IVRT), static vertical diffusion cell, synthetic membrane, UV-VIS analysis; format: physicochemical; settings: petrolatum ointment with 0.5% loteprednol etabonate and 0.3% tobramycin sulfate; 1-octanol:1-hexanol:water 25:25:50 v:v:v
Protocol: In Vitro Release Testing Method.
Release of pharmaceutically active compounds from semi-solid dosage forms was evaluated in an in vitro model of static vertical diffusion cell using a synthetic membrane model. […] The samples were analyzed using a UV-VIS spectrometer. […]
Test time points: 0, 2, 4, 6, 8, and 10 hours. Each test was conducted in four replicates (N=4). Square root of test time points: 0, 1.41, 2.00, 2.45, 2.83, and 3.16.
Membrane: Polypropylene (pore size: 0.45 micron).
Static vertical diffusion cell parameters: Area of the membrane diffusion area: 0.95 square centimeters.
Dosing level: infinite dose at about 3.0 milliliter of the semi-solid dosage form.
Static vertical diffusion cell consists of a donor and receptor compartment separated by a synthetic membrane. The dosing compartment was for the dosed semi-solid dosage form. […] Before dosing, the diffusion cell was pre-incubated at 32° C. for about 20 to 45 minutes. The t=0 samples were taken after the incubation period prior to dosing.
During the experiment, the receptor fluid was in intimate contact with the membrane through a mixing mechanism, such as, e.g., magnetic stirring bar, or orbit shaker, and maintained at 32° C. using a heating mechanism, such as, e.g., dry heat block, or circulating water bath. At each time point, entire content of the receptor fluid was collected and replaced with a fresh batch pre-incubated at 32° C.
An ointment dosage form was prepared as an example of the semi-solid dosage form. Petrolatum was heated to about 50 to 70° C. while mixing. Xylene Cyanol was added to the heated petrolatum while heating and mixing. The mixture was mixed until uniform. Then, the mixture was slowly cooled to room temperature while mixing to yield the ointment formulation.

[2] = general statement, no test described; cited from earlier work

| Compound | phase of the biphasic receptor fluid in which the released compound is solubilized [1] | solubility in water [2] |
| --- | --- | --- |
| CCOC(=O)O[C@]1(C(=O)OCCl)CC[C@H]2[C@@H]3CCC4=CC(=O)C=C[C@]4(C)[C@H]3[C@@H](O)C[C@@]21C [loteprednol etabonate, Loteprednol etabonate] | mostly solubilized in the organic 1-octanol/1-hexanol phase |  |
| Tobramycin sulfate |  | freely soluble |
